Legend:
rabbit corneas = assay: Wound closure of rabbit corneas wounded with ethanol or N-heptanol combined with mechanical debridement; type: in vivo, New Zealand white rabbits; conditions: C646 10 μM applied 3-times/day to the eye, vs DMSO, n=4
Description: FIGS. 6A and 6B illustrate the impact of C646 on rabbit corneas wounded with either ethanol or N-heptanol combined to mechanical debridement. Rabbit corneas were wounded with ethanol (70%) or N-heptanol (100%) and mechanically debrided with a scalpel blade (crescent type). The rabbits were then divided into two groups: control corneas treated with DMSO or corneas treated with C646 (10 μm). n=4 for each conditions tested. (A) Fluorescein staining of corneas surgically wounded using either ethanol or N-heptanol combined with debridement using a crescent blade and treated with 10 μM C646. Wounded eyes were photographed using a slit lamp. (B) Graph representation of the remaining wounded corneal area (%) for each condition used in (A).
FIGS. 7A and 7B illustrate the impact of C646+SC79 on wounded rabbit corneas combined to mechanical debridement. Rabbit corneas were wounded with ethanol (70%) and mechanically debrided with a scalpel blade (crescent type). The rabbits were then divided into five groups: control corneas treated with DMSO, corneas treated with C646 (1 μM) and SC-79 (1 μM), corneas treated with C646 (1 μM) and SC-79 (10 μM), corneas treated with C646 (1 μM) and SC-79 (100 μM) and corneas treated with C646 (1 μm) and SC-79 (1 mM). n=4 for DMSO and n=5 for each remaining conditions tested. […]

[1] = system: tissue-engineered human corneas; assay: Wound closure of punch-wounded tissue-engineered human corneas; type: cell-based; conditions: 8-mm punch wound; compounds in culture medium at 2x reported IC50 (GDC-0068 36 nM; C646 800 nM; SC79 10 μM along with C646 800 nM); monitored over 4 days; n=4
Procedure: FIGS. 5A to 5C illustrate the pharmacological alteration of Akt and CREB on wound closure dynamic. (A) Left panel: Tissue-engineered human corneas (TEC) (four reconstructed corneas per condition) were wounded as in FIG. 2 and then maintained in culture medium supplemented with […] (36 nM, thin line), a pharmacological inhibitor of Akt phosphorylation, and C646 (800 nM, broken line), an inhibitor of CREB phosphorylation. Wounded corneas used as controls were exposed solely to the vehicle (DMSO, thick line). Wound closure was monitored over a 4-day period. Right panel: Measurement of wound surface remaining at each day using the ImageJ64 software (n=4). (B) Left panel: TECs were wounded as in (A) and maintained in culture medium containing C646 (800 nM) along with the AKT agonist SC79 (10 μM) (thin line) or DMSO (broken line). Wound closure was monitored as in (A). Right panel: Measurement of wound surface remaining at each day using the ImageJ64 software (n=4). (C) Composite image showing a complete view of the wounded TECs exposed either to the vehicle (DMSO) or pharmacological compounds (C646, GDC0068 or the combination of C646 and SC79) 4 days following corneal damage (sections were stained with Masson's trichrome; cells are pink and collagen is bluish). The wound margin created by the biopsy punch is indicated.
The tissue-engineered, two-layers 3D human corneas that have been used as a biomaterial were produced following the self-assembly approach (see FIG. 1). Briefly, corneal fibroblasts were seeded and cultured in fibroblast growth medium supplemented with 50 μg/ml ascorbic acid (Sigma, Oakville, Ont., Canada) for 35 days. Ascorbic acid allows fibroblasts to secrete and lay down their own ECM. After peeling from the flasks, two tissue sheets were superimposed to form a reconstructed stroma and were cultured for another week so that they could adhere to each other. […]
The wound healing of in vitro reconstructed cornea was studied. […] Wound healing was monitored daily with microphotographs. […]

mouse model of stroke = conditions: cited from earlier work
Akt = conditions: cell based assays; cited from earlier work

| SMILES | wound closing time (rabbit corneas; ethanol (70%) injury combined with mechanical debridement) | wound closure (rabbit corneas; n-heptanol (100%) injury combined with mechanical debridement) | wound closure when compared to control (DMSO) [1] | neuronal death (mouse model of stroke) | cytosolic Akt signaling (Akt) |
| --- | --- | --- | --- | --- | --- |
| CC1=NN(c2ccc(C(=O)O)cc2)C(=O)C1=Cc1ccc(-c2cc(C)c(C)cc2[N+](=O)[O-])o1 [C646, 4-[4-[[5-(4,5-Dimethyl-2-nitrophenyl)-2-furanyl]methylene]-4,5-dihydro-3-methyl-5-oxo-1H-pyrazol-1-yl]benzoic acid] | clear reduction in the wound closing time | no significant impact on wound closure | accelerated wound closure | – | – |
| CC(C)NC[C@@H](C(=O)N1CCN(c2ncnc3c2[C@H](C)C[C@H]3O)CC1)c1ccc(Cl)cc1 [GDC-0068] | – | – | delayed wound closure | – | – |
| CCOC(=O)C1=C(N)Oc2ccc(Cl)cc2C1C(C#N)C(=O)OCC (stereo not shown) [SC-79, Ethyl-2-amino-6-chloro-4-(1-cyano-2-ethoxy-2-oxoethyl)-4H-chromene-3-carboxylate] | – | – | accelerated wound closure | prevents neuronal death | induces cytosolic Akt signaling |
